Columns and labels:
[1] = target: MAGL (Homo sapiens (Human), UniProt Q99685); assay: In vitro competitive activity-based protein profiling, human proteomes (prefrontal cortex or PC3 cell membrane fractions); assay type: biochemical; conditions: human proteome; for inhibition at 1 µM: read-out: MAGL % inh. 1 μM (human)
Outline: (§1)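 Activity of MAGL and FAAH was quantified from fluorescent gel band intensities. Beforehand, inhibitors at several concentrations competed against subsequent probe labelling (FP-Rh, JW912 or HT-01) in species-matched proteomes, each step 30 min at 37° C.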

[2] = target: FAAH (Homo sapiens (Human), UniProt O00519); assay: as above; assay type: biochemical; conditions: human proteome; for inhibition at 1 µM: read-out: FAAH % inh. 1 μM (human)
Outline: as §1

[3] = target: T1, MAGL (Mus musculus (Mouse), UniProt O35678); assay: Mouse brain proteomes from inhibitor treated mice (oral gavage, sacrificed 4 h after administration); assay type: in vivo; conditions: 5 mg/kg oral gavage
Protocol: (§2) Preparation of Mouse Brain Proteomes from Inhibitor Treated Mice.
(§3) Inhibitors were administered to wild-type C57B1/6J by oral gavage in a vehicle of polyethylene glycol. Each animal was sacrificed 4 h following administration and brain proteomes were prepared and analyzed according to previously established methods (See Niphakis, M. J., et al. (2011) ACS Chem. Neurosci. and Long, J. Z., et al. Nat. Chem. Biol. 5:37-44).

[4] = target: T2, FAAH (Mus musculus (Mouse), UniProt O08914); assay: as above; assay type: in vivo; conditions: 5 mg/kg oral gavage
Protocol: as §2, §3

[5] = target: T1, MAGL; assay: In vitro competitive activity-based protein profiling, mouse proteomes (brain membrane fraction or cell lysates); assay type: biochemical; conditions: mouse proteome; for inhibition at 1 µM: read-out: MAGL % inh. 1 μM (mouse)
Outline: as §1

[6] = target: T2, FAAH; assay: as above; assay type: biochemical; conditions: mouse proteome; for inhibition at 1 µM: read-out: FAAH % inh. 1 μM (mouse)
Outline: as §1

MAGL (Homo sapiens (Human), UniProt Q99685), sequence (Q99685 whole entry): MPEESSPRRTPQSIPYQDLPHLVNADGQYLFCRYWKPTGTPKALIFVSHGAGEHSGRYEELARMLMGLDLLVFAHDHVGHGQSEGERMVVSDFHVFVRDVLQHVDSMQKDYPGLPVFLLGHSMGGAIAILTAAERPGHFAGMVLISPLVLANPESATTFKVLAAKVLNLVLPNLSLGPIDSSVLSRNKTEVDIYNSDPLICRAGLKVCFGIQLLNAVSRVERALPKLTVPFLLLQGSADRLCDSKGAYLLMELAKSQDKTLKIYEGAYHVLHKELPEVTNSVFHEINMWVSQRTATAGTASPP
T2 sequence (O08914 whole entry): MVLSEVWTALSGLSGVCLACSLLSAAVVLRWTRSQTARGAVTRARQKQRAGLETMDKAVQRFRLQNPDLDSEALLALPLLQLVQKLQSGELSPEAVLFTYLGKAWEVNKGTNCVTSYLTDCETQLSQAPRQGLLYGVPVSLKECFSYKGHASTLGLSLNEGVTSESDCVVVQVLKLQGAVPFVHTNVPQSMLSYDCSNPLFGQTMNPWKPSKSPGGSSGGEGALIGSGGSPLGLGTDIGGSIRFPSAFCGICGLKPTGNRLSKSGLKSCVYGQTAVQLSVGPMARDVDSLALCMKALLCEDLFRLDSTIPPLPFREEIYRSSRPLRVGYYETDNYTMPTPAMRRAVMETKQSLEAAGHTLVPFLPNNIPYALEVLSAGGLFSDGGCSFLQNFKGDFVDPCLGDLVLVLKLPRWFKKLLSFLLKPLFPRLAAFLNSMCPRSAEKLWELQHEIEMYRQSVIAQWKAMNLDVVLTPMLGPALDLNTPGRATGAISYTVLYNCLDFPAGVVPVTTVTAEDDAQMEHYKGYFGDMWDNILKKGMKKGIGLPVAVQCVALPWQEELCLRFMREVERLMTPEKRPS
FAAH (Homo sapiens (Human), UniProt O00519), sequence (O00519 whole entry): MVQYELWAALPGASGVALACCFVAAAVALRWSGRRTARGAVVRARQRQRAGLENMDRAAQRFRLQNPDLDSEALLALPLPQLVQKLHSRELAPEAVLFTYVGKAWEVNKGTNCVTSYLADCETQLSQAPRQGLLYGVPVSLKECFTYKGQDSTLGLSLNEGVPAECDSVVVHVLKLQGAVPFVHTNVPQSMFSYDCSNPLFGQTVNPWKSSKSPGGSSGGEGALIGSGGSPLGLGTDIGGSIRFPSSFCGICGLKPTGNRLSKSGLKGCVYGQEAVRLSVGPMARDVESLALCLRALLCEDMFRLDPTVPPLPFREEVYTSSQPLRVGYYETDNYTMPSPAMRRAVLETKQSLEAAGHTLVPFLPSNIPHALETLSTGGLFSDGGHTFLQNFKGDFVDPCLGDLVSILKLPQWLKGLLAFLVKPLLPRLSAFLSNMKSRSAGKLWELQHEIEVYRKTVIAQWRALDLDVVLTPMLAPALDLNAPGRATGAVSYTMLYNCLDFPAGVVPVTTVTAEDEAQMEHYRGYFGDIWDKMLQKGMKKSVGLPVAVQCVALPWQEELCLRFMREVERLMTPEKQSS
T1 sequence (O35678 whole entry): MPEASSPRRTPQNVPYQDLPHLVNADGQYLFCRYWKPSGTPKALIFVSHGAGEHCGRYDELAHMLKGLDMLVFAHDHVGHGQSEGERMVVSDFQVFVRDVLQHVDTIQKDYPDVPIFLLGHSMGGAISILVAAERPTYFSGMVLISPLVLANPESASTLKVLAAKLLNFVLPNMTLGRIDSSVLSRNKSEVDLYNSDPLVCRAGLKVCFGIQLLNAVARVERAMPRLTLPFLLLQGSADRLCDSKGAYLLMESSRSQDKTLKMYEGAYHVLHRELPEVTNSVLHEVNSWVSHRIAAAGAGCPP

| SMILES | inhibition at 1 µM ([1]; 1 μM) [%] | inhibition at 1 µM ([2]; 1 μM) [%] | MAGL % inh. 5 mg/kg (mouse) [3] | FAAH % inh. 5 mg/kg (mouse) [4] | inhibition at 1 µM [5] [%] | inhibition at 1 µM [6] [%] | IC50 [1] [µM] | IC50 [2] [µM] | MAGL % inh. 1 μM (human) ([1]; 1 μM) | FAAH % inh. 1 μM (human) ([2]; 1 μM) | MAGL % inh. 1 μM (mouse) [5] | FAAH % inh. 1 μM (mouse) [6] |
| --- | --- | --- | --- | --- | --- | --- | --- | --- | --- | --- | --- | --- |
| CS(=O)(=O)Nc1ccn(C(=O)N2CCN(Cc3ccc(Cl)c(N4CCO[C@@H]5CCC[C@@H]54)c3)CC2)n1 [Example 158, N-(1-(4-(4-Chloro-3-((4aS,7aR)-hexahydrocyclopenta[b][1,4]oxazin-4(4aH)-yl)benzyl)piperazine-1-carbonyl)-1H-pyrazol-3-yl)methanesulfonamide] | > 75 | 0 to 25 | D (% inhibition is greater than or equal to 0% and less than 25%) | D (% inhibition is greater than or equal to 0% and less than 25%) | > 75 | 0 to 25 | – | – | – | – | – | – |
| CC(=O)Nc1ccn(C(=O)N2CCC3(CCCN3Cc3cc4cc(C(N)=O)ccc4[nH]3)CC2)n1 [Example 14, 2-((8-(3-acetamido-1H-pyrazole-1-carbonyl)-1,8-diazaspiro[4.5]decan-1-yl)methyl)-1H-indole-5-carboxamide] | > 75 | 0 to 25 | D (% inhibition is greater than or equal to 0% and less than 25%) | D (% inhibition is greater than or equal to 0% and less than 25%) | 50 to 75 | 0 to 25 | < 0.1 | 1 to 10 | – | – | – | – |
| CC(=O)Nc1ccn(C(=O)N2CC3CN(Cc4cccc(C(F)(F)F)c4)CC3C2)n1 (stereo not drawn) [Example 112, N-(1-(5-(3-(Trifluoromethyl)benzyl)octahydropyrrolo[3,4-c]pyrrole-2-carbonyl)-1H-pyrazol-3-yl)acetamide] | > 75 | 25 to 50 | A (% inhibition is greater than or equal to 75%) | A (% inhibition is greater than or equal to 75%) | > 75 | > 75 | – | – | – | – | – | – |
| CC(=O)Nc1ccn(C(=O)N2CCN(Cc3ccc(Cl)cc3OC3(C(=O)O)CC3)CC2)n1 [Example 4, 1-(2-((4-(3-acetamido-1H-pyrazole-1-carbonyl)piperazin-1-yl)methyl)-5-chlorophenoxy)cyclopropane-1-carboxylic acid] | > 75 | 0 to 25 | D (% inhibition is greater than or equal to 0% and less than 25%) | D (% inhibition is greater than or equal to 0% and less than 25%) | > 75 | 0 to 25 | – | – | – | – | – | – |
| C[C@@H](c1ccc(Cl)c(N2CCC(F)CC2)c1)N1CCN(C(=O)n2ccc(NS(C)(=O)=O)n2)CC1 [Example 11, (S)—N-(1-(4-(1-(4-chloro-3-(4-fluoropiperidin-1-yl)phenyl)ethyl)piperazine-1-carbonyl)-1H-pyrazol-3-yl)methanesulfonamide] | > 75 | 0 to 25 | C (% inhibition is greater than or equal to 25% and less than 50%) | D (% inhibition is greater than or equal to 0% and less than 25%) | > 75 | 0 to 25 | < 0.1 | 1 to 10 | – | – | – | – |
| CC(=O)Nc1ccn(C(=O)N2CCN(Cc3ccc(N4CC5COCC5C4)cc3C(F)(F)F)CC2)n1 (stereo not drawn) [Example 22, N-(1-(4-(4-(tetrahydro-1H-furo[3,4-c]pyrrol-5(3H)-yl)-2-(trifluoromethyl)benzyl)piperazine-1-carbonyl)-1H-pyrazol-3-yl)acetamide] | > 75 | 50 to 75 | C (% inhibition is greater than or equal to 25% and less than 50%) | C (% inhibition is greater than or equal to 25% and less than 50%) | > 75 | > 75 | < 0.1 | 0.1 to 1 | – | – | – | – |
| CS(=O)(=O)Nc1ccn(C(=O)N2C[C@H]3C[C@@H](N(CC(=O)O)Cc4cc(Cl)ccc4C(F)(F)F)C[C@H]3C2)n1 [Example 93, N-(5-Chloro-2-(trifluoromethyl)benzyl)-N-((3aR,5r,6aS)-2-(3-(methylsulfonamido)-1H-pyrazole-1-carbonyl)octahydrocyclopenta[c]pyrrol-5-yl)glycine] | – | – | D (% inhibition is greater than or equal to 0% and less than 25%) | D (% inhibition is greater than or equal to 0% and less than 25%) | – | – | – | – | A (% inhibition is greater than or equal to 75%) | D (% inhibition is greater than or equal to 0% and less than 25%) | A (% inhibition is greater than or equal to 75%) | D (% inhibition is greater than or equal to 0% and less than 25%) |
| C[C@H]1CN(C(=O)n2ccc(NS(C)(=O)=O)n2)CCN1Cc1ccc(Cl)c(N2CCC(F)CC2)c1 [Example 148, (S)-N-(1-(4-(4-Chloro-3-(4-fluoropiperidin-1-yl)benzyl)-3-methylpiperazine-1-carbonyl)-1H-pyrazol-3-yl)methanesulfonamide] | > 75 | 0 to 25 | A (% inhibition is greater than or equal to 75%) | D (% inhibition is greater than or equal to 0% and less than 25%) | > 75 | 0 to 25 | – | – | – | – | – | – |
| CC(=O)Nc1ccn(C(=O)N2CC3CN(Cc4ccc(N5CCCC5)cc4Cl)CC3C2)n1 (stereo not drawn) [Example 169, N-(1-(5-(2-Chloro-4-(pyrrolidin-1-yl)benzyl)octahydropyrrolo[3,4-c]pyrrole-2-carbonyl)-1H-pyrazol-3-yl)acetamide] | > 75 | 50 to 75 | B (% inhibition is greater than or equal to 50% and less than 75%) | B (% inhibition is greater than or equal to 50% and less than 75%) | > 75 | > 75 | – | – | – | – | – | – |

From patent US11149037B2, “Pyrazole MAGL inhibitors” (H. Lundbeck A/S, priority 2017, dated 2021)
